Results taken from ChEMBL document CHEMBL1201862, “PubChem BioAssay data set” (2004).
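96-well plates; 48 h exposure; 5 concentrations. Endpoints by linear interpolation between flanking doses. Not reached: highest tested concentration assigned. GI50 is the concentration that inhibits growth by half.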 Activity calls are given as the source filed them. Rule as the data show it: active = GI50 up to about 1.1 µM and inactive = higher.

Legend:
Test in all cases: DTP human tumour cell line panel, 48 h
[1] = tested on: DMS-114
[2] = tested on: M19-MEL
[3] = tested on: RXF 631
[4] = tested on: HOP-18
[5] = tested on: SNB-78
[6] = tested on: KM-20L2
[7] = tested on: DLD-1
[8] = tested on: XF498
[9] = tested on: DMS-273

Measured: GI50

CCOc1ccc(Nc2nc(C)c(C(=O)/C=C/c3ccc(Cl)cc3Cl)s2)cc1
inactive: [1] 24.9 µM | [2] 26.1 µM | [3] 21.8 µM | [4] 26.3 µM | [5] 21.4 µM | [6] 25.4 µM | [7] 26.5 µM | [8] 19.6 µM | [9] 21.4 µM

Cc1ccc(NC(=O)CC/C(CC(=O)C(C)(C)C)=N/NC(=O)C(N)=O)cc1C
inactive: [1] > 100 µM | [2] > 100 µM | [3] > 100 µM | [4] > 100 µM | [5] > 100 µM | [6] > 100 µM | [7] > 100 µM | [8] > 100 µM | [9] > 100 µM

CCOc1ccc2c(c1)[n+]([O-])c(-c1ccc(Br)cc1)c(N)[n+]2[O-]
inactive: [1] 30.4 µM | [2] 59.2 µM | [3] 56.4 µM | [4] 57.4 µM | [5] > 100 µM | [6] 47 µM | [7] 99.5 µM | [8] 49.9 µM | [9] 39.4 µM

C[C@]12CCC3[C@@H](CC[C@@H]4c5nonc5CC[C@]34C)C1CCC2=O (some centres not stated)
inactive: [1] 20.6 µM | [2] 21.6 µM | [3] 38.2 µM | [4] 43.9 µM | [5] 23.2 µM | [6] 25.7 µM | [8] 19.1 µM | [9] 19.5 µM

O=C(O)CN(c1ccc(F)cc1)S(=O)(=O)c1ccccc1
inactive: [2] > 100 µM | [3] > 100 µM | [4] > 100 µM | [6] > 100 µM | [7] > 100 µM | [8] > 100 µM | [9] > 100 µM
